Data: patent US5906981A, “Halopropargyl inclusion complexes” (Troy Corporation, priority 1996, dated 1999)

Assays:
[1] = Dissolution in water: stirring in water for 1/2 hour, filtration, recovery of IPBC (Example 2); assay type: physicochemical; conditions: 4 g IPBC in 96 g water, stirred 1/2 hour
Method: Four grams of IPBC were added to 96 g of water and stirred for 1/2 hour. The resulting slurry was filtered off and the filter cake was dried and weighed. […] Approximately 27 g of the lyophilized inclusion complex prepared in Example 1 was added to 73 g water and the mixture was stirred for 1/2 hour. […] Use of the inclusion complex in this manner thus affords approximately 4% solution of IPBC in water, which is a solubility enhancement of approximately 250-300 times.

[2] = Thermal decomposition point; assay type: physicochemical; conditions: pure IPBC or IPBC in the inclusion complex
Method: The melting point of pure IPBC is 66-67° C. and its decomposition occurs at about 150-155° C., leading to formation of highly colored by-products. The decomposition point of IPBC in the inclusion complex of Examples 1 and 3 was determined to be about 222-225° C.

SMILES: CCCCNC(=O)OCC#CI [IPBC, 3-iodo-2-propynyl butylcarbamate]
- IPBC recovered in the filter cake [1]: Approximately 98%
- decomposition point [2]: 150-155 °C
